Where a SMILES comes first, the peptide text is derived from it. The star is where a group is joined. X1 = CC1(C)CC[C@]2(C(=O)*)CC[C@]3(C)C(=CCC4[C@@]5(C)CC[C@H](O)C(C)(C)C5CC[C@]43C)C2C1
Assays:
TNF α = TNF α inhibition in LPS-stimulated human whole blood (ELISA); type: cell-based; conditions: human whole blood, LPS 1 ng/mL
Excerpt: For TNF α inhibitory study, human whole blood is used. In whole blood assay, monocytes appear to be the main source of TNF-α on lipopolysaccharide (LPS) stimulation. Monocyte and macrophages are a major source of TNF-α in addition to other cell types like eosinophils, mast cells, peripheral lymphocytes and granulocytes. The activation of inflammatory cells is influenced by the intracellular levels of c-AMP which are regulated by the phosphodiesterase isoenzyme. […] After stimulation, the assay employs the quantitative sandwich enzyme immunoassay technique. A monoclonal antibody specific for TNF-α has been pre-coated onto a microplate. TNF-α present in the sample is bound by the immobilized antibody. After washing away any unbound substances, an enzyme-linked polyclonal antibody specific for TNF-α is added. Following a wash to remove any unbound antibody-enzyme reagent, a substrate solution is added to the wells and colour develops in proportion to the amount of TNF-α bound in the initial step. The colour development is stopped and the intensity of the colour is directly proportional to the TNF-α content.
Heparinized blood from healthy donors was diluted 1:3 in RPMI 1640 culture medium containing 10% FBS. […] 0.1% DMSO was used as vehicle for water insoluble samples. After pre-incubation, the whole blood cells were stimulated by 1 ng/mL LPS for the release of TNF α from the macrophages by incubating for 5 hr at 37° C. in an incubator with 5% COP. The samples were then centrifuged at 3000 g for 3 minutes at 4° C. and the supernatant was assayed for TNF α content by using the TNF α Elisa kit. 200 μL of supernatant from all the tubes was transferred into microtiter plate in respective wells (Pre-coated mouse monoclonal antibody microplate) followed by the addition of 50 μL of assay diluents in all the wells. After incubation for 2 hr at room temperature, the wells were washed thoroughly with wash buffer provided and then 200 μL of conjugate was added to each well. The plate was incubated for 2 hr at room temperature. After washing again, 200 μL of substrate solution was added to each well and incubated for 20 minutes at room temperature. 50 μL of Stop Solution to each well which will cause the colour change in the wells from blue to yellow was added. The optical density was read at 450 nm which is directly proportional to TNF α content and the percentage of inhibition of TNF α content on treatment with sample was calculated with respect to that of the untreated cells.
T=absorbance due to TNF α in the presence of inhibitor

human skin = assay: Effect of Oleanoyl peptide cream on human facial skin; type: in vivo; conditions: cream with Oleanoyl peptide (0.01%), twice daily, three weeks, photographs
Method: To study the potential effect of Oleanoyl peptide on human skin, candidates were selected in-house whose age ranging from about 30 to 60 with moderate to severe signs of aging. A topical composition comprising Oleanoyl peptide (0.01%) was prepared as a cream for application on the skin.
The cream containing Oleanoyl peptide was applied on the affected areas of facial skin of the candidates twice daily for a continuous period of three weeks. Photographs of the candidates were taken before and after three weeks of application of the cream.

[1] = target: Collagenase Type IV from Clostridium histolyticum; conditions: Collagenase Type IV 0.2 U/ml, DQ gelatin, 30 minutes
[2] = system: B16F1 mouse melanoma cells; assay: Melanin inhibition in α-MSH induced melanoma cells; type: cell-based
Method: B16F1 mouse melanoma cells were seeded in a 6 well microtiter plate at a seeding density of 5000 cells per well in 2 ml DMEM medium per well. After 24 hours of incubation in a CO2 incubator, melanin production is induced by 0.1 nM ∝-MSH by replacing the medium with medium containing ∝-MSH. The cells were then treated with varying concentrations of sample (composition containing oleanoyl peptide and stilbenes/licorice extract/THC) over a period of 9 days with renewal of ∝-MSH containing medium and sample at regular intervals of 3 days. Control wells were maintained without sample treatment and only with the vehicle used for sample preparation. After the incubation period, the medium was removed and the cells were scraped and washed in PBS. Thereafter, melanin was extracted by 1N NaOH in boiling water bath for 5 minutes. The absorbance of the melanin extract was read at 405 nm in a microplate reader. The inhibitory effect of the sample is calculated based on the decrease of melanin formation.
T=absorbance due to melanin in the presence of inhibitor

C[C@@H](O)[C@H](NC(=O)[C@H](CCCCN)NC(=O)[C@]12CCC(C)(C)CC1C1=CCC3[C@@]4(C)CC[C@H](O)C(C)(C)C4CC[C@@]3(C)[C@]1(C)CC2)C(=O)N[C@H](C(=O)N[C@@H](CCCCN)C(=O)N[C@@H](CO)C(=O)O)[C@@H](C)O (stereo partly drawn) [Oleanoyl peptide, Oleanoyl-Lys-Thr-Thr-Lys-Ser-OH] (X1-KTTKS-OH)
TNF α inhibition (IC50 μg/ml) (TNF α): 21 µg/mL | effect on dark circles under the eye (human skin): reduction of dark circles under the eye | effect on hyperpigmentation (human skin): reduction in hyperpigmentation | effect on skin thickness (human skin): improvement in skin thickness | effect on wrinkles (human skin): wrinkles are softened | Collagenase inhibition (IC50 μg/ml) [1]: 119 µg/mL | reduction in melanin ([2]; result in words, FIG. 15): no significant reduction in melanin | Melanin inhibition IC50 (μg/ml), Individual active ([2]; α-MSH induced, 9 days): Not significant
